Key:
[1] = Reactivity: time for gel formation on mixing 50% solutions; assay type: physicochemical; details: 50% solution of Group B compound with aqueous 50% solution of Compound A-1
[2] = Solubility in water; assay type: physicochemical; details: highest concentration forming a uniform transparent aqueous solution
Text: In Table 1, the water solubility is shown by the highest concentration of the compound for forming a uniform transparent aqueous solution.

CCC(CS)(CS)CS [Compound B-10]
Time for gel formation [1]: 600 s | Solubility [2]: >30%

NC1C(O)OC(CO)C(O)C1O (stereo not drawn) [Compound B-4]
Time for gel formation [1]: 600 s | Solubility [2]: 20%

SCC(S)CS [Compound B-8]
Time for gel formation [1]: 600 s | Solubility [2]: >30%

From patent US6503307B1, “Ink set, printing method, ink, printed article, printing apparatus, ink cartridge, recording unit, and process of forming polymeric compound films” (Canon Kabushiki Kaisha, priority 1999, dated 2003)
